# Patent US11976074B1, “Crystalline salts of Linsitinib” (Sling Therapeutics, Inc., priority 2023, dated 2024)
# Entries after “also recorded” stand apart in the source; their conditions may differ.
# How the values were obtained:
# Format in all cases: physicochemical
# [1] = Physical stability testing of Esylate 4 (elevated temperature vacuum drying); conditions: vacuum oven, 60° C., 18 hours
# From the text: Esylate 4 was obtained from salt formation experiments using 1 Eq ESA at RT and ST in IPA and was further characterized using multiple techniques (Table 16).
# Esylate 5 was initially only obtained in-tandem with Esylate 4 from slurries in several different solvent systems (FIG. 4). […] Due to the fact that the sample had been generated via drying at elevated temperature, the weight loss observed upon heating is likely due to surface or channel water absorbed during exposure to ambient conditions. […] Esylate 5 was not obtained from any of the interconversion slurries, indicating it is metastable under the conditions investigated (Table 18).
# [2] = Interconversion slurries of esylate forms; conditions: 4° C., RT, 60° C.; MEK and 2:1 EtOH:HEP
# Experimental: To find the thermodynamically stable form of the mono-salt, interconversion slurries were set-up at three different temperatures in two different solvent systems between Esylates 1, 2, 3 and Esylate 4+Esylate 5 (Table 11). A sample of Esylate 4+Esylate 5 was included as part of the interconversion slurry in-spite of Esylate 4 being a solvate as Esylate 5 could not be isolated as a separate pure phase until the drying experiment was carried out on Esylate 4 towards the end of the study. Slurries were set-up at 4° C., RT and at 60° C. in MEK and 2:1 EtOH:HEP, resulting in a total of six experiments which were run for a total of 7 days.
# [3] = Heating experiments with selected malate samples
# Experimental: Based on the thermal data, Malate 4 and Malate 5 were heated at […] for 15 minutes. The solids were re-analyzed by PXRD after heating to investigate any form change upon dehydration. […] While there was an insufficient amount of sample to further characterize Malate 7, based on the conditions upon which it was generated, it could be a lower hydrate or an anhydrous form.
# [4] = Differential scanning calorimetry (DSC); conditions: endotherms
# Experimental: DSC analysis was carried out using a TA Instruments […] Discovery Series instrument. The instrument temperature calibrations were performed using indium. The DSC cell was kept under a nitrogen purge of 50 mL per minute during the analysis. The sample was placed in a standard, crimped aluminum pan and heated from approximately 25° C. to 300° C. at a rate of 10° C. per minute
# [5] = Thermogravimetric analysis (TGA); conditions: start to 83° C.
# Experimental: The TG analysis was carried out using a TA Instruments […] Discovery Series instrument. The instrument balance was calibrated using class M weights and the temperature calibration was performed using alumel. The nitrogen purge was 10 mL per minute at the balance and 25 mL per minute at the furnace. The sample was placed into a pre-tared platinum pan and heated from approximately 25° C. to 300° C. at a rate of 10° C. per minute.
# [6] = DVS analysis (hygroscopicity) of Esylate 2
# From the text: Esylate 2 appears to be a stable polymorph of the esylate salt of linsitinib. Esylate 2 was isolated from a wide range of techniques, solvents and temperatures, and a few samples were characterized further (Table 13). NMR analysis confirmed it to be a 1:1 linsitinib esylate salt. […] This was further supported by successful indexing of its PXRD pattern, whose calculated unit cell volume pointed to a 1:1 salt (Section 0).
# [7] = Mechanical stress test (neat grinding/milling); conditions: milled neat at max power for 30 minutes
# Experimental: (§1) A scale-up attempt for Esylate 2 was carried out towards the relative humidity stress test and the mechanical stress test.
# [8] = Water activity slurries of Esylate 2 seeded with Esylate 1; conditions: for PXRD result of water activity slurry: seeded with Esylate 1
# From the text: Water activity slurries were set-up with Esylate 2 and seeds of Esylate 1 to explore the presence of a potential hydrate and any associated critical water activity (Table 12). Four slurries were set-up in varying ratios of THF and H2O corresponding to 0.45, 0.63, 0.78 and 0.91 aw respectively.
# [9] = pH-solubility of linsitinib free base and selected salts (pH 1.5 to 6.5, overnight equilibration, HPLC); conditions: for solubility: overnight equilibration; for Final pH: after overnight equilibration
# Experimental: The pH-solubility of selected salts (Phosphate 1, L-Malate 1, Esylate 1, and Esylate 2) was evaluated and compared with linsitinib free base. The solubility analysis was conducted in a manner consistent with a previous study that was performed with linsitinib free base. Aqueous solutions were prepared between pH 1.5 and pH 6.5 in 0.5 pH unit increments via titration of the solution using NaOH and HCl. For each salt or the free base, an attempt was made to reach saturation in each of the solutions by adding sufficient material to the solution such that excess solids remained. If saturation was achieved, the pH of the solution was measured and adjusted to the target pH and additional material was added if needed. The samples were then equilibrated overnight. The final pH of the solution was measured, the solids were filtered and selected samples were analyzed by PXRD. The concentration of linsitinib in the filtrate was quantitated by HPLC (diluted as needed). In some cases, significant drift (+1 pH unit or more) of the final pH from the target pH was observed after the overnight equilibration.
# The pH-solubility data is shown graphically in FIG. 89. […] Indeed, it should be noted that in the majority of the low pH systems, higher initial dissolution/solubility was observed followed by precipitation of the material from solution upon longer equilibration.
# [10] = 75% relative humidity stress test; conditions: 24 days, RT
# Experimental: as §1
# [11] = Equilibrium solubility in bio-relevant media (FaSSGF pH 1.6, FaSSIF pH 6.5)
# From the text: In addition to the pH-solubility data, a comparison of the equilibrium solubility of linsitinib free base and salts in two bio-relevant media (Table 28), fasted state simulated gastric fluid (FaSSGF pH 1.6) and intestinal fluid (FaSSIF pH 6.5) was completed. […] A saturated solution of Esylate 1 was not achieved during this study and therefore the equilibrium solubility could be higher than determined. It should be noted that variability of almost a full pH unit was noted among the samples making a direct comparison more challenging.
smiles,measurement,setting,value
CCS(=O)(=O)O.C[C@]1(O)C[C@@H](c2nc(-c3ccc4ccc(-c5ccccc5)nc4c3)c3c(N)nccn32)C1 [Esylate 4],PXRD result after vacuum drying,[1],form change into Esylate 5
same,Relative stability of the form in interconversion slurries,[2],metastable
C[C@]1(O)C[C@@H](c2nc(-c3ccc4ccc(-c5ccccc5)nc4c3)c3c(N)nccn32)C1.O=C(O)C[C@H](O)C(=O)O [Malate 5],XRPD result after heating,"[3]; 92° C., 15 min",Malate 7 + pk
same,Form change upon heating (PXRD),[3]; heated for 15 minutes,"dehydrate to a new form, designated as Malate 7"
same,"DSC Results, Endo",[4],Endo: 109 °C
same,TGA Results (weight loss),[5],"7.4%, start to 83 °C"
CCS(=O)(=O)O.C[C@]1(O)C[C@@H](c2nc(-c3ccc4ccc(-c5ccccc5)nc4c3)c3c(N)nccn32)C1 [Esylate 2],Hygroscopicity by DVS,[6],slightly hygroscopic
same,Net weight change after DVS analysis,[6],no net weight change
same,Weight gain and loss during the sorption and desorption cycles,[6],1%
same,DVS sorption total weight gain,[6]; 5-95% RH,5-95% RH: Total 33.1% weight gain
same,DVS sorption weight gain,[6]; 35-75% RH,35-75% RH: 12.0% weight gain
same,DVS desorption weight loss,[6]; 75-35% RH,75-35% RH: 12.3% weight loss
same,DVS sorption weight gain,[6]; 75-95% RH,75-95% RH: 16.9% weight gain
same,DVS desorption total weight loss,[6]; 95-5% RH,95-5% RH: Total 33.1% weight loss
same,DVS desorption weight loss,[6]; 95-75% RH,95-75% RH: 14.2% weight loss
same,Water up-take above 85% RH,[6]; above 85% RH,~0.8%
same,DVS net weight change,[6]; after sorption and desorption,−0.04% weight loss
same,PXRD result after grinding,[7],poorly crystalline Esylate 2 along with amorphous residue
same,PXRD result of water activity slurry,"[8]; 93.1% THF in H2O, aw = 0.91, RT",Esylate 2
same,PXRD result of water activity slurry,"[8]; 94.7% THF in H2O, aw = 0.78, RT",Esylate 2
same,PXRD result of water activity slurry,"[8]; 96.2% THF in H2O, aw = 0.63, RT",Esylate 2
same,PXRD result of water activity slurry,"[8]; 97.6% THF in H2O, aw = 0.45, RT",Esylate 2
same,"Critical water activity, if present",[8]; THF/H2O slurries at RT,> 0.91 aw
same,Relative stability of the form in interconversion slurries,[2],most stable form
same,solubility,"[9]; aqueous solution, pH 6, aqueous buffer, thermodynamic from solid, target pH 6.0, read-out: Solubility",0.7 mg/mL
same,Solubility compared to the free base and other salts,[9]; between pH 3 and pH 4,highest solubility
same,Solubility compared with the free base or Phosphate 1,[9]; lower pH (<3),significantly higher solubility
same,Final pH,[9]; target pH 1.5,1.45
same,solubility,"[9]; target pH 1.5, * = clear solution, not equilibrium value",106.19 mg/mL
same,Final pH,[9]; target pH 2.0,2.06
same,solubility,"[9]; target pH 2.0, * = clear solution, not equilibrium value",97.33 mg/mL
same,Final pH,[9]; target pH 2.5,2.54
same,solubility,"[9]; target pH 2.5, * = clear solution, not equilibrium value",71.00 mg/mL
same,Final pH,[9]; target pH 3.0,3.04
same,solubility,"[9]; target pH 3.0, * = clear solution, not equilibrium value",73.90 mg/mL
same,Final pH,[9]; target pH 3.5,3.53
same,solubility,"[9]; target pH 3.5, * = clear solution, not equilibrium value",38.04 mg/mL
same,Final pH,[9]; target pH 4.0,3.99
same,solubility,"[9]; target pH 4.0, * = clear solution, not equilibrium value",39.56 mg/mL
same,Final pH,[9]; target pH 4.5,4.54
same,solubility,"[9]; target pH 4.5, * = clear solution, not equilibrium value",18.90 mg/mL
same,Final pH,[9]; target pH 5.0,4.96
same,solubility,[9]; target pH 5.0,20.46 mg/mL
same,Final pH,[9]; target pH 5.5,5.48
same,Final pH,[9]; target pH 6.0,4.18
same,Final pH,[9]; target pH 6.5,4.34
same,solubility,[9]; target pH 6.5,0.002 mg/mL
same,PXRD result after 75% RH stress,[10],no form change; also recorded: Esylate 2
same,Weight gain by TGA after 75% RH stress,[10],no weight gain
same,Final pH,[11]; FaSSGF (pH 1.6),3.25
same,solubility,[11]; FaSSGF (pH 1.6),103.10 mg/mL
same,Solubility compared with the free base,"[11]; FaSSGF (pH 1.6), in words",highest solubility by a significant margin
same,Final pH,[11]; FaSSIF (pH 6.5),3.72
same,solubility,[11]; FaSSIF (pH 6.5),1.62 mg/mL
